Reference: patent publication EP2914280B1, “SOMATOSTATIN-DOPAMINE CHIMERIC ANALOGS” (IPSEN PHARMA S.A.S., priority 2012, dated 2014)

Columns and labels:
hSSTR3 = target: T1, hSSTR3 (Homo sapiens, UniProt P32745); experiment: Somatostatin receptor radioligand binding assay (hSSTR3); settings: CHO-K1 cell membranes; 0.05 nM [125I-Tyr11]-SRIF-14; 60 minutes at 25°C; read-out: hSSTR3 Ki (nM) ± SEM
T1 construct: expressed in transfected cells; host or cells: CHO-K1 (ATCC), pcDNA3.1, G418-selected clonal line; membranes
Protocol: (§1) The affinities of a test compound for the human somatostatin receptors were determined by radioligand binding assays in CHO-K1 cells stably transfected with each of the human somatostatin receptor subtypes, hSSTR1-5. The cDNA coding sequences of hSSTR1 (GenBank accession No. NM_001049.1), hSSTR2 (GenBank accession No. XM_012697.1), hSSTR3 (GenBank accession No. XM_009963.1), hSSTR4 (GenBank accession No. NM_001052.1), and hSSTR5 (GenBank accession No. XM_012565.1) were subcloned into the mammalian expression vector pcDNA3.1 (Life Technologies). Clonal cell lines stably expressing each of the somatostatin receptors were obtained by transfection into CHO-K1 cells (ATCC) and subsequently selected with culture media containing 0.8 mg/mL of G418 (Life Technologies).
(§2) Membranes for in vitro receptor binding assays were obtained by the following procedures. CHO-K1 cells expressing one of the somatostatin receptors were homogenized in ice-cold buffer with 10 mM Tris-HCl, 5 mM EDTA, 3 mM EGTA, 1 mM phenylmethylsuphonyl fluoride, pH 7.6, using Polytron PT10-35GT (Kinematica) at 18,000 rpm for 30 seconds and centrifuged at 500 x g for 10 minutes. The supernatant containing the plasma membranes was centrifuged at 100,000 x g for 30 minutes and the pellet was resuspended in buffer containing 20 mM glycine-glycine, 1 mM MgCl2, 250 mM sucrose, pH 7.2, for storage at -80°C.
(§3) For the hSSTR3 and 4 assays, membranes and various concentrations of test compounds were incubated in 96-well plates for 60 minutes at 25°C with 0.05 nM [^125I-Tyr^11]-SRIF-14 (PerkinElmer Life Science) in 50 mM HEPES, 0.2% BSA, 5 mM MgCl2, 200 KIU/mL trasylol, 0.02 mg/mL bacitracin, and 0.02 mg/mL phenylmethylsuphonyl fluoride, pH 7.5.
(§4) The incubations were terminated by rapid filtration through GF/C glass microfiber filter plates (pre-wet with 0.3% polyethyleneimine and 0.1 % BSA) using a 96-well cell harvester (Brandel). Plates were washed six times with 1 mL/well aliquots of ice-cold buffer containing 50 mM Tris buffer, pH 7.7. Specific binding was defined as the total radioligand bound minus the bound in the presence of 1000 nM SRIF-14.

[1] = tested on: pituitary tumor cells of acromegalic patients presenting with macroadenoma; experiment: Human pituitary adenoma cell growth hormone release assay; format: cell-based; settings: incubated for 18 hours; Growth hormone levels in the medium by AlphaLISA; Figure 5
Protocol: • Figure 1 is a graph showing the Growth hormone suppressing activity of Compound 4 (see Table I hereinbelow for its chemical name and its corresponding structural representation) on pituitary tumor cells of acromegalic patients presenting with macroadenoma. Various concentrations of Compound 4 were added to the medium and the cells were incubated for 18 hours before measurement of Growth hormone levels in the medium using the AlphaLISA Growth Hormone Immunoassay Research kit (PerkinElmer). • Figure 2 is a graph showing the Growth hormone suppressing activity of Compounds 5 , 6, and 7 (see Table I hereinbelow for their chemical name and their corresponding structural representation) on pituitary tumor cells of acromegalic patients presenting with macroadenoma. Various concentrations of Compounds 5, 6, and 7 were added to the medium and the cells were incubated for 18 hours before measurement of Growth hormone levels in the medium using the AlphaLISA Growth Hormone Immunoassay Research kit (PerkinElmer). • Figure 3 is a graph showing the Growth hormone suppressing activity of Compounds 4, 6, 7, 8, and 9 (see Table I hereinbelow for their chemical name and their corresponding structural representation) on pituitary tumor cells of acromegalic patients presenting with macroadenoma. […]

hSSTR2 [2] = target: T2, hSSTR2 (Homo sapiens, UniProt P30874); experiment: Intracellular calcium mobilization assay (FLIPR Calcium 4), hSSTR2; format: cell-based; settings: receptor not named;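 note: agonist activity measured in cells expressing hSSTR2, seeded in 384-well plates, loaded with Calcium 4 dye, read-out as rise in intracellular calcium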
T2 construct: host or cells: 'Cells expressing hSSTR2'

hSSTR5 = target: T3, hSSTR5 (Homo sapiens, UniProt P35346); experiment: Somatostatin receptor radioligand binding assay (hSSTR5); settings: CHO-K1 cell membranes; 0.05 nM [125I-Tyr]-[DPhe-cyclo(Cys-Tyr-DTrp-Lys-Val-Cys)-Thr-NH2]; 60 minutes at 25°C; read-out: hSSTR5 Ki (nM) ± SEM
T3 construct: expressed in transfected cells; host or cells: CHO-K1 (ATCC), pcDNA3.1, G418-selected clonal line; membranes
Protocol: (§5) The affinities of a test compound for the human somatostatin receptors were determined by radioligand binding assays in CHO-K1 cells stably transfected with each of the human somatostatin receptor subtypes, hSSTR1-5. […] Clonal cell lines stably expressing each of the somatostatin receptors were obtained by transfection into CHO-K1 cells (ATCC) and subsequently selected with culture media containing 0.8 mg/mL of G418 (Life Technologies).
(§6) Membranes for in vitro receptor binding assays were obtained by the following procedures. […] The supernatant containing the plasma membranes was centrifuged at 100,000 x g for 30 minutes and the pellet was resuspended in buffer containing 20 mM glycine-glycine, 1 mM MgCl2, 250 mM sucrose, pH 7.2, for storage at -80°C.
(§7) For the SSTR1, 2 and 5 assays, membranes and various concentrations of test compounds were incubated in 96-well plates for 60 minutes at 25°C with 0.05 nM [^125I-Tyr^11]-SRIF-14 (for hSSTR1; PerkinElmer Life Science), 0.05 nM [^125I-Tyr]-seglitide (for hSSTR2; PerkinElmer Life Science) or 0.05 nM [^125I-Tyr]-[DPhe-cyclo(Cys-Tyr-DTrp-Lys-Val-Cys)-Thr-NH2] (for hSSTR5; PerkinElmer Life Science) in 50 mM HEPES, 0.2% BSA, 0.1 mM MgCl2, pH 7.5.

hDRD2 [3] = target: T4, hDRD2 (Homo sapiens, UniProt P14416); experiment: biochemical; format: binding; set-up: expressed in transfected cells; host or cells: CHO-K1, pcDNA3.1/GS, zeocin-selected clonal line; membranes; settings: CHO-K1 cell membranes; […] [3H]-spiperone; 60 minutes at 25°C; read-out: hDRD2 Ki (nM) ± SEM
hSSTR4 = target: T5, hSSTR4 (Homo sapiens, UniProt P31391); experiment: Somatostatin receptor radioligand binding assay (hSSTR4); settings: CHO-K1 cell membranes; 0.05 nM [125I-Tyr11]-SRIF-14; 60 minutes at 25°C; read-out: hSSTR4 Ki (nM) ± SEM
T5 construct: expressed in transfected cells; host or cells: CHO-K1 (ATCC), pcDNA3.1, G418-selected clonal line; membranes
Protocol: as §1, §2, §3, §4

hSSTR2 [4] = target: T2, hSSTR2; experiment: Somatostatin receptor radioligand binding assay (hSSTR2); settings: CHO-K1 cell membranes; 0.05 nM [125I-Tyr]-seglitide; 60 minutes at 25°C; read-out: hSSTR2 Ki (nM) ± SEM;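 note: radioligand displacement on membranes of CHO-K1 cells stably transfected with human SSTR2, specific binding taken as total minus binding left with 1000 nM SRIF-14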
hDRD2 [5] = target: T4, hDRD2; experiment: cell-based; set-up: host or cells: 'Cells expressing hDRD2'; settings: read-out: hDRD2 %Emax ± SEM
hSSTR1 = target: T6, hSSTR1 (Homo sapiens, UniProt P30872); experiment: Somatostatin receptor radioligand binding assay (hSSTR1); settings: CHO-K1 cell membranes; 0.05 nM [125I-Tyr11]-SRIF-14; 60 minutes at 25°C; read-out: hSSTR1 Ki (nM) ± SEM
T6 construct: expressed in transfected cells; host or cells: CHO-K1 (ATCC), pcDNA3.1, G418-selected clonal line; membranes
Protocol: as §5, §6, §7
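Throughout, for Emax: agonist activity at human DRD2 in DRD2-expressing cells, read as intracellular calcium mobilization with a FLIPR Calcium 4 fluorescent dye.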

T2 sequence (P30874 whole entry): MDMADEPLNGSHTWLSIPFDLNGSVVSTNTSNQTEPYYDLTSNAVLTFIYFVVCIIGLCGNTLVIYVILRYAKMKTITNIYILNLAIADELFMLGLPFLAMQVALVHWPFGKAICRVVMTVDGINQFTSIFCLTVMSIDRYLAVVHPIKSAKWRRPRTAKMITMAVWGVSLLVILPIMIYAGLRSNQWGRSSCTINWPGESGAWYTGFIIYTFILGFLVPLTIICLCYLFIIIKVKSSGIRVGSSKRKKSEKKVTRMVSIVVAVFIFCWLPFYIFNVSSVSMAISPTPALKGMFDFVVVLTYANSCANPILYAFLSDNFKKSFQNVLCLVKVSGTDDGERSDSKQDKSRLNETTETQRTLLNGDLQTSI
T4 sequence (P14416 whole entry): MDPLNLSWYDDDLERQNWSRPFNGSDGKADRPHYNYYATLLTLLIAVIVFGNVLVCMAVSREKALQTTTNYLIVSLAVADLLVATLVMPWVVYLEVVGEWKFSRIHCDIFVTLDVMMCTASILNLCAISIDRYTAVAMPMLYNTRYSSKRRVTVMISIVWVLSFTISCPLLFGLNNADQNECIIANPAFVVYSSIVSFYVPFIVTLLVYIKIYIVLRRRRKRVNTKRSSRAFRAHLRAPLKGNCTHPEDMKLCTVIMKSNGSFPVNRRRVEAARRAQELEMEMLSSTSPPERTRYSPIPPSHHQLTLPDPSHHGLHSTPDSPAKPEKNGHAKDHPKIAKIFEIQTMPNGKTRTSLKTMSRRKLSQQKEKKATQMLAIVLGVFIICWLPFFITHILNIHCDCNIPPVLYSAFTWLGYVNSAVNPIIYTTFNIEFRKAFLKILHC
T3 sequence (P35346 whole entry): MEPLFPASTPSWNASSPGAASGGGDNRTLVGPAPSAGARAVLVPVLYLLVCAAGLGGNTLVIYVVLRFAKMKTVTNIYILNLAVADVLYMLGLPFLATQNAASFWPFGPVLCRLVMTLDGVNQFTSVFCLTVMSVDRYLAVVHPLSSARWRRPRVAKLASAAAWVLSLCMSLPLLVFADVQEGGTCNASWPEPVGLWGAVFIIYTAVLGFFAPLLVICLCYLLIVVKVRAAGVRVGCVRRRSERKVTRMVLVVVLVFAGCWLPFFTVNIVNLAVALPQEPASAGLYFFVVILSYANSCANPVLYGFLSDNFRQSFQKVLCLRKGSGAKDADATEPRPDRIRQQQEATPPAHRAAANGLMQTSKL
T5 sequence (P31391 whole entry): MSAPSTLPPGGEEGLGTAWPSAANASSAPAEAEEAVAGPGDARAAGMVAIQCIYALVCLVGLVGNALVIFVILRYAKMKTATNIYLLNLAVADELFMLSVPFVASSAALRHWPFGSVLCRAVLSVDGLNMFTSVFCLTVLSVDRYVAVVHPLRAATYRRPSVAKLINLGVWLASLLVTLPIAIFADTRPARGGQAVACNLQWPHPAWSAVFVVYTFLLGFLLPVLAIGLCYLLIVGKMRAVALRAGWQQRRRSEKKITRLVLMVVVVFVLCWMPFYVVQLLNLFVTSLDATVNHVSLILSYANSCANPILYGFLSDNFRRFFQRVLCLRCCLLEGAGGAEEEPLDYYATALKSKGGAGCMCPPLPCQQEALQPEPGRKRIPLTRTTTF
T1 sequence (P32745 whole entry): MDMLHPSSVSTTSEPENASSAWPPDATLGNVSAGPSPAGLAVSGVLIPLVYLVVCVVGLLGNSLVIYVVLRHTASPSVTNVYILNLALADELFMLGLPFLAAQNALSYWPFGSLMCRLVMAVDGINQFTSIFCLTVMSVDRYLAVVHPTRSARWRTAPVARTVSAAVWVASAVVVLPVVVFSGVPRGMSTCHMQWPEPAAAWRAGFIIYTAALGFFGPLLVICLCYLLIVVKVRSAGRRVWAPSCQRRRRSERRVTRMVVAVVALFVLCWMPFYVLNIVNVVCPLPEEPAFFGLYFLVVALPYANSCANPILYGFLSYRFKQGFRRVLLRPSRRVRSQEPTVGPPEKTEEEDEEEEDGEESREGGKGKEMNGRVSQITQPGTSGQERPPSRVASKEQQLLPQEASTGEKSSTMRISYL
T6 sequence (P30872 whole entry): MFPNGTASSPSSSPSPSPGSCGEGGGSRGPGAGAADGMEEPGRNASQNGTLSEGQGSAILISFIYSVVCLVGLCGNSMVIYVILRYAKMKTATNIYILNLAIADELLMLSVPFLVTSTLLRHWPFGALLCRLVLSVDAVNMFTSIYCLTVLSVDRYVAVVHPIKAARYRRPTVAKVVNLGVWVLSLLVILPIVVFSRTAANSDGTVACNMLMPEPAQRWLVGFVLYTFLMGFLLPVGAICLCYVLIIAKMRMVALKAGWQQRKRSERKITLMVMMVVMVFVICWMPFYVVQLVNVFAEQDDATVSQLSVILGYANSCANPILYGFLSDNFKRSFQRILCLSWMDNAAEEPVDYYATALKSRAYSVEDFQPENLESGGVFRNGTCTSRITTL

| Structure (SMILES) | Ki (hSSTR3) | Growth hormone suppressing activity compared to the parent somatostatin analogs [1] | improvement in EC50 and/or %Emax over Reference Compound B (hSSTR2 [2]) | Ki (hSSTR5) | Ki (hDRD2 [3]) | Ki (hSSTR4) | Ki (hSSTR2 [4]) | Emax (hDRD2 [5]) | Ki (hSSTR1) |
| --- | --- | --- | --- | --- | --- | --- | --- | --- | --- |
| C[C@@H](O)[C@@H]1NC(=O)[C@H](CCCCN)NC(=O)[C@@H](Cc2c[nH]c3ccccc23)NC(=O)[C@H](Cc2ccccc2)NC(=O)[C@H](Cc2ccccc2)NC(=O)[C@H](CCCNC(=N)N)NC(=O)[C@H](NC[C@H](Cc2ccc(O)cc2)NC(=O)CSC[C@@H]2C[C@@H]3c4cccc5[nH]cc(c45)C[C@H]3N(C)C2)CCCCNC(=O)[C@H](Cc2ccc(F)cc2)NC1=O [Compound 5, Dop1-Tyr-psi(CH2NH)-cyclo(DLys-Arg-Phe-Phe-DTrp-Lys-Thr-4FPhe)] | 1.5 ± 0.3 nM | enhanced Growth hormone suppressing activity | statistically significant improvement in EC50 and/or %Emax | 1.65 ± 0.8 nM | 28.5 ± 12.8 nM | 25.2 ± 9 nM | 0.34 ± 0.09 nM | 98.7 ± 2.3% | 9 ± 0.3 nM |
| C[C@@H](O)[C@@H]1NC(=O)[C@H](CCCCN)NC(=O)[C@@H](Cc2c[nH]c3ccccc23)NC(=O)[C@H](Cc2ccncc2)NC(=O)[C@H](Cc2ccccc2)NC(=O)[C@H](CCCNC(=N)N)NC(=O)[C@H](NC[C@H](Cc2ccc(O)cc2)NC(=O)CSC[C@@H]2C[C@@H]3c4cccc5[nH]cc(c45)C[C@H]3N(C)C2)CCCCNC(=O)[C@H](Cc2ccccc2)NC1=O [Compound 4, Dop1-Tyr-psi(CH2NH)-cyclo(DLys-Arg-Phe-4Pal-DTrp-Lys-Thr-Phe)] | 10.6 ± 0.5 nM | enhanced Growth hormone suppressing activity | statistically significant improvement in EC50 and/or %Emax | 0.92 ± 0.1 nM | 182.5 ± 1.7 nM | 93.5 ± 47.7 nM | 0.12 ± 0.01 nM | 106 ± 2.4% | 38.1 ± 12.5 nM |
